Values of other authors, collected in patent US20250064735A1, “CONTAINER SYSTEM AND PHARMACEUTICAL FOAM COMPOSITION COMPRISING BETAMETHASONE” (Glenmark Pharmaceuticals Limited, priority 2018, published 2025).

Compound | pH at which the substance is stable
CC1C[C@H]2[C@@H]3CCC4=CC(=O)C=C[C@]4(C)[C@@]3(F)C(O)C[C@]2(C)[C@@]1(O)C(=O)CO (some centres unmarked) [Betamethasone, 9-fluoro-11,17,21-trihydroxy-16-methylpregna-1,4-diene-3,20-dione] | 4-6
C=C1/C(=C\C=C2/CCC[C@]3(C)[C@@H]([C@H](C)/C=C/[C@@H](O)C4CC4)CC[C@@H]23)C[C@@H](O)C[C@@H]1O [Calcipotriene] | greater than 8
